Test results as given in EP4707280A1, “1,4-CINEOLE DERIVATIVE AND INTERMEDIATE THEREOF, HERBICIDE CONTAINING SAID DERIVATIVE AS ACTIVE INGREDIENT, METHOD FOR USING HERBICIDE, AND METHOD FOR PREPARING AGROCHEMICAL COMPOSITION” (HOKKO CHEMICAL INDUSTRY CO., LTD., priority 2023, dated 2024).

Columns and labels:
Format in all cases: in vivo
Digitaria ciliaris [1] = experiment: Test Example 7: herbicidal effect test by soil application in upland field (low dose); settings: Digitaria ciliaris, 7.5 g per 10 ares, sprayed one day after sowing, 14 days after application, read-out: weed inhibition rate
Method in brief: (§1)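 Upland soil (alluvial loam) pots, seeds mixed into top 1 cm layer → EC formulation diluted with water, sprayed onto soil 1 d post-sowing, 100 L/10 a → 7.5 g a.i./10 a → inhibition (%) scored at 14 d, n=2.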

Echinochloa crus-galli [2] = experiment: as above; settings: Echinochloa crus-galli, 7.5 g per 10 ares, sprayed one day after sowing, 14 days after application, read-out: weed inhibition rate
Method in brief: as §1

Digitaria ciliaris [3] = experiment: Test Example 8: herbicidal effect test by stem and leaf treatment in upland field (low dose); settings: Digitaria ciliaris; 7.5 g per 10 ares; sprayed seven days after sowing, upland soil; 14 days after application; read-out: weed inhibition rate
Echinochloa crus-galli [4] = experiment: as above; settings: Echinochloa crus-galli; 7.5 g per 10 ares; sprayed seven days after sowing, upland soil; 14 days after application; read-out: weed inhibition rate
Digitaria ciliaris [5] = experiment: Test Example 3: herbicidal effect test by soil application in upland field; settings: Digitaria ciliaris, 120 g per 10 ares, sprayed one day after sowing, 14 days after application, read-out: weed inhibition rate
Method in brief: (§2)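 Pre-emergence test: seeds mixed into top 1 cm of alluvial loam upland soil in pots; emulsifiable concentrate diluted in water sprayed on soil one day after sowing at 100 L/10 a, 120 g a.i./10 a. Weed inhibition rate (%) scored at 14 days, in duplicate.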

Echinochloa crus-galli [6] = experiment: as above; settings: Echinochloa crus-galli, 120 g per 10 ares, sprayed one day after sowing, 14 days after application, read-out: weed inhibition rate
Method in brief: as §2

Digitaria ciliaris [7] = experiment: Test Example 4: herbicidal effect test by stem and leaf treatment in upland field; settings: Digitaria ciliaris; 120 g per 10 ares; sprayed seven days after sowing, upland soil; 14 days after application; read-out: weed inhibition rate
[8] = tested on: Echinochloa crus-galli var. formosensis; experiment: Test Example 1: herbicidal effect test by soil application in paddy rice; settings: Echinochloa crus-galli, soil, 336 h; 120 g active ingredient per 10 ares; applied immediately after sowing, flooded pots; 14 days after application; read-out: weed inhibition rate
Method in brief: (§3)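 Weeds sown 0–1 cm deep (30 seeds each) into fertilized, puddled paddy soil in Wagner pots. Pots are flooded immediately, water held near 3 cm, and the diluted emulsifiable concentrate is dripped in at once, delivering 120 g active ingredient per 10 ares under glass-greenhouse management.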

Scirpus juncoides [9] = experiment: as above; settings: Schoenoplectiella juncoides, soil, 336 h; 120 g active ingredient per 10 ares; applied immediately after sowing, flooded pots; 14 days after application; read-out: weed inhibition rate
Method in brief: as §3

Echinochloa crus-galli [10] = experiment: Test Example 4: herbicidal effect test by stem and leaf treatment in upland field; settings: Echinochloa crus-galli; 120 g per 10 ares; sprayed seven days after sowing, upland soil; 14 days after application; read-out: weed inhibition rate
[11] = tested on: Echinochloa crus-galli var. formosensis; experiment: Test Example 2: herbicidal effect test by application during growth period of paddy rice; settings: Echinochloa crus-galli; 120 g per 10 ares; applied seven days after sowing, flooded pots; 14 days after application; read-out: weed inhibition rate
Method in brief: (§4)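 Steps: puddle fertilized paddy soil; sow 30 seeds of each weed at 0–1 cm; flood to roughly 3 cm and keep in a glasshouse; at day 7 drop in diluted emulsifiable concentrate (120 g a.i. per 10 ares); score inhibition (%) 14 days later, two replicates.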

Scirpus juncoides [12] = experiment: as above; settings: Schoenoplectiella juncoides; 120 g per 10 ares; applied seven days after sowing, flooded pots; 14 days after application; read-out: weed inhibition rate
Method in brief: as §4

[13] = tested on: Echinochloa crus-galli var. formosensis; experiment: Test Example 5: herbicidal effect test by soil application in paddy rice (low dose); settings: Echinochloa crus-galli, soil, 336 h; 7.5 g per 10 ares; applied immediately after sowing, flooded pots; 14 days after application; read-out: weed inhibition rate
Method in brief: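 Flooded-paddy soil application at low dose (7.5 g a.i. per 10 ares), given by dropper as diluted emulsifiable concentrate directly after sowing weeds 0–1 cm deep. Effect evaluated after 14 days in duplicate.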

[14] = tested on: Echinochloa crus-galli var. formosensis; experiment: Test Example 6: herbicidal effect test by application during growth period of paddy rice (low dose); settings: Echinochloa crus-galli; 7.5 g per 10 ares; applied seven days after sowing, flooded pots; 14 days after application; read-out: weed inhibition rate
Method in brief: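 Low-dose water application, 7.5 g a.i. per 10 ares, given by dropper into flooded pots (about 3 cm depth) 7 days after sowing of 30 weed seeds each at 0–1 cm. Evaluation of inhibition (%) took place 14 days later, duplicate per rate.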

CC(C)[C@]12C[C@@H](OCc3c(F)cccc3Cl)[C@](C)(C[C@@H]1Cl)O2 [1-653, (1R,2S,4S,5R)-2-chloro-5-[(2-chloro-6-fluoro-phenyl)methoxy]-1-isopropyl-4-methyl-7-oxabicyclo[2.2.1]heptane]
≥ 80%: inhibition at 75 g/ha (Digitaria ciliaris [1]) | inhibition at 75 g/ha (Echinochloa crus-galli [2]) | inhibition at 75 g/ha (Digitaria ciliaris [3]) | inhibition at 75 g/ha (Echinochloa crus-galli [4]) | inhibition at 1200 g/ha (Digitaria ciliaris [5]) | inhibition at 1200 g/ha (Echinochloa crus-galli [6]) | inhibition at 1200 g/ha (Digitaria ciliaris [7]) | pest or weed control at 1200 g/ha [8] | pest or weed control at 1200 g/ha (Scirpus juncoides [9]) | inhibition at 1200 g/ha (Echinochloa crus-galli [10]) | inhibition at 1200 g/ha [11] | inhibition at 1200 g/ha (Scirpus juncoides [12]) | inhibition at 75 g/ha [13] | inhibition at 75 g/ha [14]

CC(C)[C@]12C[C@@H](OCc3cccs3)[C@](C)(C[C@@H]1Cl)O2 [1-661, (1R,2S,4S,5R)-2-chloro-1-isopropyl-4-methyl-5-(2-thienylmethoxy)-7-oxabicyclo[2.2.1]heptane]
≥ 80%: inhibition at 75 g/ha (Digitaria ciliaris [1]) | inhibition at 75 g/ha (Echinochloa crus-galli [2]) | inhibition at 75 g/ha (Digitaria ciliaris [3]) | inhibition at 75 g/ha (Echinochloa crus-galli [4]) | inhibition at 1200 g/ha (Digitaria ciliaris [5]) | inhibition at 1200 g/ha (Echinochloa crus-galli [6]) | inhibition at 1200 g/ha (Digitaria ciliaris [7]) | pest or weed control at 1200 g/ha [8] | pest or weed control at 1200 g/ha (Scirpus juncoides [9]) | inhibition at 1200 g/ha (Echinochloa crus-galli [10]) | inhibition at 1200 g/ha [11] | inhibition at 1200 g/ha (Scirpus juncoides [12]) | inhibition at 75 g/ha [13] | inhibition at 75 g/ha [14]

CC(C)C12CC(OCc3c(F)cccc3Br)C(C)(CC1Cl)O2 (stereo not shown) [1-1611, 2-[(2-bromo-6-fluorophenyl)methoxy]-5-chloro-1-methyl-4-isopropyl-7-oxabicyclo[2.2.1]heptane]
≥ 80%: inhibition at 75 g/ha (Digitaria ciliaris [1]) | inhibition at 75 g/ha (Echinochloa crus-galli [2]) | inhibition at 75 g/ha (Digitaria ciliaris [3]) | inhibition at 75 g/ha (Echinochloa crus-galli [4]) | inhibition at 1200 g/ha (Digitaria ciliaris [5]) | inhibition at 1200 g/ha (Echinochloa crus-galli [6]) | inhibition at 1200 g/ha (Digitaria ciliaris [7]) | pest or weed control at 1200 g/ha [8] | pest or weed control at 1200 g/ha (Scirpus juncoides [9]) | inhibition at 1200 g/ha (Echinochloa crus-galli [10]) | inhibition at 1200 g/ha [11] | inhibition at 1200 g/ha (Scirpus juncoides [12]) | inhibition at 75 g/ha [13] | inhibition at 75 g/ha [14]

CC(C)[C@]12C[C@@H](OCc3c(F)cccc3Br)[C@](C)(C[C@@H]1I)O2 [1-1614, (1R,2S,4S,5R)-5-[(2-bromo-6-fluoro-phenyl)methoxy]-2-iodo-1-isopropyl-4-methyl-7-oxabicyclo[2.2.1]heptane]
≥ 80%: inhibition at 75 g/ha (Digitaria ciliaris [1]) | inhibition at 75 g/ha (Echinochloa crus-galli [2]) | inhibition at 75 g/ha (Digitaria ciliaris [3]) | inhibition at 75 g/ha (Echinochloa crus-galli [4]) | inhibition at 1200 g/ha (Digitaria ciliaris [5]) | inhibition at 1200 g/ha (Echinochloa crus-galli [6]) | inhibition at 1200 g/ha (Digitaria ciliaris [7]) | pest or weed control at 1200 g/ha [8] | pest or weed control at 1200 g/ha (Scirpus juncoides [9]) | inhibition at 1200 g/ha (Echinochloa crus-galli [10]) | inhibition at 1200 g/ha [11] | inhibition at 1200 g/ha (Scirpus juncoides [12]) | inhibition at 75 g/ha [13] | inhibition at 75 g/ha [14]

CC(C)C12CC(OCc3ccccn3)C(C)(CC1Cl)O2 (stereo not shown) [1-1320, 2-[(5-chloro-4-isopropyl-1-methyl-7-oxabicyclo[2.2.1]heptan-2-yl)oxymethyl]pyridine]
≥ 80%: inhibition at 75 g/ha (Digitaria ciliaris [1]) | inhibition at 75 g/ha (Echinochloa crus-galli [2]) | inhibition at 75 g/ha (Digitaria ciliaris [3]) | inhibition at 75 g/ha (Echinochloa crus-galli [4]) | inhibition at 1200 g/ha (Digitaria ciliaris [5]) | inhibition at 1200 g/ha (Echinochloa crus-galli [6]) | inhibition at 1200 g/ha (Digitaria ciliaris [7]) | pest or weed control at 1200 g/ha [8] | pest or weed control at 1200 g/ha (Scirpus juncoides [9]) | inhibition at 1200 g/ha (Echinochloa crus-galli [10]) | inhibition at 1200 g/ha [11] | inhibition at 1200 g/ha (Scirpus juncoides [12]) | inhibition at 75 g/ha [13] | inhibition at 75 g/ha [14]
